# Tests used:
# Assay in all cases: relative viability (nuclei count vs DMSO), 5 days (fraction); higher = more cells survive
# Idelalisib + Foretinib = compound: CC[C@H](Nc1ncnc2[nH]cnc12)c1nc2cccc(F)c2c(=O)n1-c1ccccc1 [Idelalisib] + COc1cc2c(Oc3ccc(NC(=O)C4(C(=O)Nc5ccc(F)cc5)CC4)cc3F)ccnc2cc1OCCCN1CCOCC1 [Foretinib] (partner 0.25 µM)
# Method in brief: (§1)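 Relative viability was taken as the ratio of nuclei in treated wells to nuclei in vehicle wells. Lung cancer cell lines in 1536-well plates received compounds by pin tool one day after seeding, either one drug alone or a fixed anchor-drug dose plus five library-drug doses (not always all listed) in √10 steps. Nuclei were counted on 4× images after 5 days of treatment, and values are medians of duplicate plates.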
# Idelalisib + Phenformin = compound: CC[C@H](Nc1ncnc2[nH]cnc12)c1nc2cccc(F)c2c(=O)n1-c1ccccc1 [Idelalisib] + N=C(N)NC(=N)NCCc1ccccc1 [Phenformin] (partner 250 µM)
# Method in brief: as §1
# Pemetrexed + Dasatinib = compound: Nc1nc2[nH]cc(CCc3ccc(C(=O)N[C@@H](CCC(=O)O)C(=O)O)cc3)c2c(=O)[nH]1 [Pemetrexed] + Cc1nc(Nc2ncc(C(=O)Nc3c(C)cccc3Cl)s2)cc(N2CCN(CCO)CC2)n1 [Dasatinib] (partner 0.075 µM)
# Method in brief: as §1
# Idelalisib = compound: CC[C@H](Nc1ncnc2[nH]cnc12)c1nc2cccc(F)c2c(=O)n1-c1ccccc1 [Idelalisib]
# Method in brief: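 Lung cancer cell lines received five library-drug doses (not always all listed) spaced by √10, pinned on vehicle-anchored 1536-well plates after an overnight stay at 37 °C. Five days later, with no medium change, nuclei were Hoechst-stained, imaged at 4× and counted with MetaXpress. Viability is treated-well nuclei relative to vehicle-well nuclei, as a median across plates. Passing plates had control CV below 25% and at least one doubling.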
Cell Line,relative viability (Idelalisib + Foretinib; first compound 0.04 µM),relative viability (Idelalisib + Foretinib; first compound 0.1265 µM),relative viability (Idelalisib + Foretinib; first compound 0.4 µM),relative viability (Idelalisib + Foretinib; first compound 1.265 µM),relative viability (Idelalisib + Foretinib; first compound 4 µM),relative viability (Idelalisib + Phenformin; first compound 0.04 µM),relative viability (Idelalisib + Phenformin; first compound 0.1265 µM),relative viability (Idelalisib + Phenformin; first compound 0.4 µM),relative viability (Idelalisib + Phenformin; first compound 1.265 µM),relative viability (Idelalisib + Phenformin; first compound 4 µM),relative viability (Pemetrexed + Dasatinib; first compound 0.002 µM),relative viability (Pemetrexed + Dasatinib; first compound 0.006325 µM),relative viability (Pemetrexed + Dasatinib; first compound 0.02 µM),relative viability (Pemetrexed + Dasatinib; first compound 0.06325 µM),relative viability (Pemetrexed + Dasatinib; first compound 0.2 µM),relative viability (Idelalisib; 0.04 µM),relative viability (Idelalisib; 0.1265 µM),relative viability (Idelalisib; 0.4 µM),relative viability (Idelalisib; 1.265 µM),relative viability (Idelalisib; 4 µM)
NCI-H3122,0.963,0.939,1,0.982,0.836,0.389,0.371,0.403,0.41,0.388,0.707,0.815,0.659,0.674,0.463,1.03,0.989,1,0.977,1.03
PC-3 [JPC-3],1.01,0.961,1.01,1.06,0.957,0.454,0.484,0.477,0.451,0.42,0.845,0.988,1.03,0.983,0.941,1.19,1.05,1.03,1.02,0.915
PC-14,1.05,0.988,0.933,0.995,0.968,0.746,0.784,0.516,0.409,0.669,0.249,0.242,0.316,0.0953,0.0482,1.07,1.05,0.951,0.922,0.959
RERF-LC-KJ,0.879,0.953,0.809,0.871,0.768,0.442,0.438,0.419,0.44,0.373,0.767,0.881,0.856,0.849,0.382,1.11,0.99,0.955,0.959,0.817
SK-LU-1,0.816,0.765,0.811,0.693,0.766,0.601,0.57,0.433,0.55,0.468,0.184,0.205,0.185,0.198,0.162,1.07,1.11,0.866,0.953,0.979
SK-MES-1,0.904,0.768,0.55,0.768,0.544,0.704,0.675,0.663,0.686,0.674,0.411,0.367,0.516,0.328,0.339,1.04,1.01,0.885,0.749,0.745
SW 900,0.796,1.14,0.869,0.766,0.563,0.683,0.458,0.634,0.614,0.395,0.637,0.602,0.657,0.449,0.477,0.855,0.851,0.701,0.853,0.696
SW 1573,1.05,1.07,0.786,0.986,0.971,0.383,0.37,0.336,0.36,0.336,0.524,0.448,0.735,0.593,0.42,1.09,0.886,0.896,0.961,0.923

# Source: the supplement of paper PMC10307832
